In brackets after ≈: the same amount, converted by molar mass. Where two headings read alike, the source gives them in different places.
What was measured:
[1] = Aqueous solubility; assay type: physicochemical
[2] = tested on: IL-6 secretion; experiment: IL-6 secretion assay in astrocytes (Promega Lumit IL-6 kit); assay type: cell-based, human; details: Homo sapiens, Astrocyte, read-out: IL6-Inhib.
Experimental: IL-6 secretion assay. HCAs were plated at 20,000 cells per well in white clear bottom 96-well plates. Two to three days later, media was removed and replaced with media containing 10 ng/mL IL1B and compound dilution series. Five hours later, plates were processed using the Lumit IL-6 Assay Kit (Promega W6030) according to the manufacturer's instructions.
• ^1Radiometric kinase assay from Eurofins. Performed in astrocytes with a Promega Lumit IL-6 kit. A series of halogenated flavones was generated and assayed (Table 3).

[3] = molecular target: T1, CK2A1 (Homo sapiens, UniProt P68400); experiment: Radiometric kinase assay (Eurofins), CK2A1; assay type: biochemical
T1 construct: purchased Eurofins
Description: FIGS. 4A-4F characterize flavones for in vitro and in-cell CK2 inhibition. […] Representative of two independent experiments. […] Nonlinear fit was used to calculate IC50. […] Nonlinear fit was used to calculate IC50. […] Nonlinear fit was used to calculate IC50. […] Normalized to DMSO, data are representative of three independent experiments.
(§1) • ^1Radiometric kinase assay from Eurofins. Performed in astrocytes with a Promega Lumit IL-6 kit.

[4] = molecular target: T2, CK2A2 (Homo sapiens, UniProt P19784); experiment: Radiometric kinase assay (Eurofins), CK2A2; assay type: biochemical
T2 construct: purchased Eurofins
Description: as §1

[5] = aqueous medium (not further specified), Table 8, read-out: Aqueous Solubility
[6] = Table 8, quinazolinones, read-out: CK2A1 RAD IC50
[7] = Table 8, quinazolinones, read-out: CK2A2 RAD IC50
[8] = Table 11, read-out: Aqueous Solubility
[9] = Table 11, aurones, read-out: CK2A1 RAD IC50
[10] = Table 11, aurones, read-out: CK2A2 RAD IC50
[11] = aqueous (not further specified), Table 3, read-out: Aqueous Solubility
[12] = Table 3, halogenated flavones, read-out: CK2A1 RAD IC50
[13] = Table 3, halogenated flavones, read-out: CK2A2 RAD IC50
[14] = Table 2, read-out: CK2A1 RAD IC50
[15] = Table 2, read-out: CK2A2 RAD IC50

T1 sequence (P68400 whole entry): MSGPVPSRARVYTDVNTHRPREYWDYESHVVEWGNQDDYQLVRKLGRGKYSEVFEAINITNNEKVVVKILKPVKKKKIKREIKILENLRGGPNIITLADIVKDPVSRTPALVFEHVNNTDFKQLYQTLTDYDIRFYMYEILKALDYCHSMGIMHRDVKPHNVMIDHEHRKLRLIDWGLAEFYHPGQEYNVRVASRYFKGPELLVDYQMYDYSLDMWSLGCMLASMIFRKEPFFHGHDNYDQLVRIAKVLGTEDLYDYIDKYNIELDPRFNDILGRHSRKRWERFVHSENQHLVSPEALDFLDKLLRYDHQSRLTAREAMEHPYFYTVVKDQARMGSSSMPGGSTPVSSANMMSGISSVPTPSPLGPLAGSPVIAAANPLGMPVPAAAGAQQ
T2 sequence (P19784 whole entry): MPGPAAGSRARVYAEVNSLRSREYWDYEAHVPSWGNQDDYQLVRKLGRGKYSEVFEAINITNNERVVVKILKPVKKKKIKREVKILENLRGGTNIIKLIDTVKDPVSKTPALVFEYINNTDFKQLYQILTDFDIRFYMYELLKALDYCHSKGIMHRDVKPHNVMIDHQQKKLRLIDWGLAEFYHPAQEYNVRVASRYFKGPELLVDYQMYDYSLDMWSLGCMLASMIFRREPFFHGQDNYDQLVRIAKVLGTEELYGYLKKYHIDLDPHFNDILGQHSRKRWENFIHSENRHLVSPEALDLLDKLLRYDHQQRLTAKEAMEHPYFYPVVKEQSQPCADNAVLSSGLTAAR

Structure (SMILES): COc1cc(-c2nc3c(Cl)cc(Cl)cc3c(=O)[nH]2)ccc1O [JKT.810A]
- solubility [1, 5]: < 0.01 µM
- IC50 ([2]; Table 8): > 10000 nM
- IC50 [3, 6]: > 5000 nM
- IC50 [4, 7]: > 5000 nM

Structure (SMILES): COc1ccc2c(c1Br)O/C(=C\c1ccc(O)c(Br)c1)C2=O [JKT.815A]
- solubility [1, 8]: < 0.01 µM
- IC50 ([2]; Table 11): 4600 nM
- IC50 [3, 9]: 47 nM
- IC50 [4, 10]: 26 nM

Structure (SMILES): COc1nc(-c2nc3c(Br)nc(Br)cc3c(=O)[nH]2)ccc1O [JKT.976B]
- IC50 ([2]; Table 8): > 10000 nM
- IC50 [3, 6]: 234 nM
- IC50 [4, 7]: 495 nM

Structure (SMILES): O=C1/C(=C/c2ccc(-c3nnn[nH]3)cc2)Oc2c(Br)cc(Br)cc21 [JKT.633A]
- solubility ([1]; Table 10, read-out: Solubility): 102 µM (≈ 45.8 µg/mL)
- IC50 ([2]; Table 10): > 10000 nM
- IC50 ([3]; Table 10, aurones, read-out: CK2A1 IC50): > 5000 nM
- IC50 ([4]; Table 10, aurones, read-out: CK2A2 IC50): > 5000 nM

Structure (SMILES): O=c1[nH]c(-c2cc(F)c(O)c(F)c2)nc2c(Br)cccc12 [JKT.830A]
- solubility [1, 5]: 171 µM (≈ 60.4 µg/mL)
- IC50 ([2]; Table 8): > 10000 nM
- IC50 [3, 6]: 866 nM
- IC50 [4, 7]: 1210 nM

Structure (SMILES): O=c1cc(-c2ccc(O)c(Cl)c2)oc2c(Br)cccc12 [JKT.749A]
- solubility [1, 11]: 36.5 µM (≈ 12.8 µg/mL)
- IC50 ([2]; Table 3): 4800 nM
- IC50 [3, 12]: 11 nM
- IC50 [4, 13]: 18 nM

Structure (SMILES): COc1nc(-c2cc(=O)c3cc(Cl)cc(Br)c3o2)ccc1O [JKT.669A]
- IC50 ([2]; Table 2, astrocytes): 2900 nM
- IC50 [3, 14]: 7 nM
- IC50 [4, 15]: 5 nM

Structure (SMILES): COc1ccc2c(c1Br)O/C(=C\c1ccc(O)c(Cl)c1)C2=O [JKT.817A]
- solubility [1, 8]: < 0.01 µM
- IC50 ([2]; Table 11): 6500 nM
- IC50 [3, 9]: 59 nM
- IC50 [4, 10]: 53 nM

Structure (SMILES): COc1ccc2c(c1Br)O/C(=C\c1ccc(O)c(I)c1)C2=O [JKT.814A]
- solubility [1, 8]: < 0.01 µM
- IC50 ([2]; Table 11): 4300 nM
- IC50 [3, 9]: 131 nM
- IC50 [4, 10]: 123 nM

Structure (SMILES): O=C1/C(=C/c2ccc(O)cc2Br)Oc2c(Br)cc(Br)cc21 [JKT.758A]
- solubility [1, 8]: 2.7 µM (≈ 1.28 µg/mL)
- IC50 ([2]; Table 11): 3000 nM
- IC50 [3, 9]: > 5000 nM
- IC50 [4, 10]: > 5000 nM

Structure (SMILES): O=c1[nH]c(-c2cc(Cl)c(O)c(Cl)c2)nc2c(Br)cccc12 [JKT.829A]
- solubility [1, 5]: 193 µM (≈ 74.6 µg/mL)
- IC50 ([2]; Table 8): > 10000 nM
- IC50 [3, 6]: 736 nM
- IC50 [4, 7]: 659 nM

Structure (SMILES): O=c1[nH]c(-c2ccc(O)c(Cl)c2)nc2c(Cl)cc(Cl)cc12 [JKT.806A]
- solubility [1, 5]: 17 µM (≈ 5.81 µg/mL)
- IC50 ([2]; Table 8): > 10000 nM
- IC50 [3, 6]: > 5000 nM
- IC50 [4, 7]: > 5000 nM

Structure (SMILES): COc1c(Br)cc2c(c1Br)O/C(=C\c1ccc(O)cc1Br)C2=O [JKT.760A]
- solubility [1, 8]: 184 µM (≈ 92.7 µg/mL)
- IC50 ([2]; Table 11): 9400 nM
- IC50 [3, 9]: > 5000 nM
- IC50 [4, 10]: > 5000 nM

Structure (SMILES): O=C1/C(=C/c2cc(Cl)c(O)c(Cl)c2)Oc2c(Br)cc(Br)cc21 [JKT.822A]
- solubility [1, 8]: < 0.01 µM
- IC50 ([2]; Table 11): 2000 nM
- IC50 [3, 9]: 2010 nM
- IC50 [4, 10]: 804 nM

Structure (SMILES): COc1c(Br)cc2c(c1Br)O/C(=C\c1ccc(C(=O)O)cc1)C2=O [JKT.765A]
- solubility [1, 8]: > 200 µM
- IC50 ([2]; Table 11): 15000 nM
- IC50 [3, 9]: 2460 nM
- IC50 [4, 10]: 199 nM

Structure (SMILES): O=c1cc(-c2ccc(O)c(Cl)c2)oc2c(Br)cc(Br)cc12 [JKT.721A]
- solubility [1, 11]: 19.6 µM (≈ 8.44 µg/mL)
- IC50 ([2]; Table 3): 2600 nM
- IC50 [3, 12]: 10 nM
- IC50 [4, 13]: 5 nM

Structure (SMILES): O=c1[nH]c(-c2ccc(O)c(Br)c2)nc2c(Cl)cc(Cl)cc12 [JKT.805A]
- solubility [1, 5]: 4.2 µM (≈ 1.62 µg/mL)
- IC50 ([2]; Table 8): > 10000 nM
- IC50 [3, 6]: 2890 nM
- IC50 [4, 7]: 2830 nM

Structure (SMILES): O=c1cc(-c2cc(Cl)c(O)c(Cl)c2)oc2c(Br)cc(Br)cc12 [JKT.465A]
- IC50 ([2]; Table 2, astrocytes): 4900 nM
- IC50 [3, 14]: 134 nM
- IC50 [4, 15]: 45 nM

Structure (SMILES): COc1cc(-c2cc(=O)c3cc(Br)c(OC)c(Br)c3o2)ccc1O [JKT.706A]
- IC50 ([2]; Table 2, astrocytes): 8600 nM
- IC50 [3, 14]: 247 nM
- IC50 [4, 15]: 49 nM

Structure (SMILES): COc1cc(-c2nc3c(Br)cc(Br)cc3c(=O)[nH]2)ccc1O [JKT.737B]
- IC50 ([2]; Table 8): > 10000 nM
- IC50 [3, 6]: 863 nM
- IC50 [4, 7]: 2850 nM

Structure (SMILES): O=c1cc(-c2ccc(O)c(C(F)(F)F)c2)oc2c(Br)cc(Br)cc12 [JKT.460A]
- IC50 ([2]; Table 2, astrocytes): 3000 nM
- IC50 [3, 14]: 609 nM
- IC50 [4, 15]: 129 nM

Structure (SMILES): O=c1cc(-c2cc(F)c(O)c(F)c2)oc2c(Br)cc(Br)cc12 [JKT.461B]
- IC50 ([2]; Table 2, astrocytes): > 10000 nM
- IC50 [3, 14]: 76 nM
- IC50 [4, 15]: 32 nM

Structure (SMILES): COc1nc(-c2cc(=O)c3cccc(Br)c3o2)ccc1O [JKT.666A]
- IC50 ([2]; Table 2, astrocytes): 2000 nM
- IC50 [3, 14]: 5 nM
- IC50 [4, 15]: 8 nM

Structure (SMILES): COc1nc(-c2cc(=O)c3cc(Cl)cc(Cl)c3o2)ccc1O [JKT.678A]
- IC50 ([2]; Table 2, astrocytes): 3600 nM
- IC50 [3, 14]: 17 nM
- IC50 [4, 15]: 8 nM

Source: US20260199350A1, “FLAVONES, QUINOLINONES, QUINAZOLINONES, AND AURONES, AND USES IN CK2-MEDIATED DISEASES” (Salk Institute for Biological Studies, priority 2022, published 2026)
